Experimental data from patent US11266655B2, “Methods and compositions for treating urea cycle disorders” (Camp4 Therapeutics Corporation, priority 2019, dated 2022).
Several values for one entry are separate records, joined by “and”; a condition that tells them apart may be missing. Equal entries are not always repeated. Where two headings read alike, the source gives them in different places.

B1: Anti mullerian hormone: member of the TGF-B gene family which mediates male sexual differentiation (protein, UniProt P03971 452-560, looked up)
Muellerian-inhibiting factor: SAGATAADGPCALRELSVDLRAERSVLIPETYQANNCQGVCGWPQSDRNPRYGNHVVLLLKMQVRGAALARPPCCVPTAYAGKLLISLSEERISAHHVPNMVATECGCR
B2: Nodal: 13 kDa member of the TGF-B superfamily (protein, UniProt Q96S42 238-347, looked up)
Nodal homolog: HHLPDRSQLCRKVKFQVDFNLIGWGSWIIYPKQYNAYRCEGECPNPVGEEFHPTNHAYIQSLLKRYQPHRVPSTCCAPVKTKPLSMLYVDNGRVLLDHHKDMIVEECGCL
B3: Wnt3a: secreted signaling protein of the WNT gene family (protein, UniProt P56704 19-352, looked up)
Protein Wnt-3a: SYPIWWSLAVGPQYSSLGSQPILCASIPGLVPKQLRFCRNYVEIMPSVAEGIKIGIQECQHQFRGRRWNCTTVHDSLAIFGPVLDKATRESAFVHAIASAGVAFAVTRSCAEGTAAICGCSSRHQGSPGKGWKWGGCSEDIEFGGMVSREFADARENRPDARSAMNRHNNEAGRQAIASHMHLKCKCHGLSGSCEVKTCWWSQPDFRAIGDFLKDKYDSASEMVVEKHRESRGWVETLRPRYTYFKVPTERDLVYYEASPNFCEPNPETGSFGTRDRTCNVSSHGIDGCDLLCCGRGHNARAERRREKCRCVFHWCCYVSCQECTRVYDVHTCK

Tests used:
[1] = tested on: NAGS; format: cell-based, human
[2] = tested on: CPS1; experiment: JAK inhibitors at 0.3 and 3 μM in primary human hepatocytes, CPS1 mRNA fold change; format: cell-based; settings: fold change vs DMSO
Protocol: (§1) Additional small molecules that inhibit JAK1, JAK2, JAK3, or a combination of the JAK proteins were tested in primary human hepatocytes as described in Example 2. JAK inhibitors were tested in triplicate at 0.3 μM and 3 μM. The results are shown as the fold change (mRNA FC) in the mRNA levels of OTC and CPS1 genes after treatment compared to an untreated control (DMSO) and the standard deviation (SD).

[3] = tested on: ASS1; experiment: RNA-seq of compound-treated primary human hepatocytes, ASS1 expression; format: cell-based
[4] = tested on: OTC; experiment: JAK inhibitors at 0.3 and 3 μM in primary human hepatocytes, OTC mRNA fold change; format: cell-based; settings: fold change vs DMSO
Protocol: as §1

[5] = tested on: ARG1; experiment: RNA-seq of compound-treated primary human hepatocytes, ARG1 expression; format: cell-based; settings: primary human hepatocytes; for Fold change (Log 2) vs untreated, ARG1 expression: RNA-seq (Table 7)
[6] = tested on: SLC25A15; experiment: RNA-seq of compound-treated primary human hepatocytes, SLC25A15 expression; format: cell-based
[7] = tested on: CPS1; experiment: RNA-seq of compound-treated primary human hepatocytes, CPS1 expression; format: cell-based; settings: primary human hepatocytes; for Relative CPS1 level vs Untreated (±Standard Deviation): triplicate (Table 19, FIG. 11); for CPS1 expression, Fold change (Log 2) vs untreated: RNA-seq
[8] = tested on: SLC25A13; experiment: RNA-seq of compound-treated primary human hepatocytes, SLC25A13 expression; format: cell-based; settings: for Relative SLC25A13 level vs Untreated (±Standard Deviation): primary human hepatocytes, triplicate (Table 23, FIG. 15)
[9] = tested on: urea cycle genes; experiment: RNA-seq of primary human hepatocytes, compounds that modulate multiple urea cycle-related genes; format: cell-based; settings: primary human hepatocytes, RNA-seq; for Up-regulated Genes: urea cycle-related genes significantly increased (Table 10)
[10] = tested on: OTC; experiment: RNA-seq of compound-treated primary human hepatocytes, OTC expression; format: cell-based; settings: primary human hepatocytes, RNA-seq
[11] = 0.3 μM, primary human hepatocytes, triplicate (Table 21, FIG. 13)
[12] = 1 μM, primary human hepatocytes, triplicate (Table 21, FIG. 13)
[13] = 3 μM, primary human hepatocytes, triplicate (Table 21, FIG. 13)
[14] = 3 μM, primary human hepatocytes, triplicate (Table 15, FIG. 7)
[15] = 10 μM, primary human hepatocytes, triplicate (Table 15, FIG. 7)
[16] = 1 μM, primary human hepatocytes, triplicate (Table 24, FIG. 16A-B)
[17] = 3 μM, primary human hepatocytes, triplicate (Table 24, FIG. 16A-B)
[18] = 10 μM, primary human hepatocytes, triplicate (Table 24, FIG. 16A-B)

Row | Molecule | Fold change (Log 2) vs untreated, ARG1 expression [5] [Log 2] | CPS1 expression, Fold change (Log 2) vs untreated [7] [Log 2] | number of urea cycle genes whose expression was significantly up-regulated [9] | Up-regulated Genes [9] | OTC expression, Fold change (Log 2) vs untreated [10] [Log 2] | also measured
1 | O=C(Nc1c[nH]nc1-c1nc2ccc(CN3CCOCC3)cc2[nH]1)NC1CC1 [AT9283] |  |  |  |  |  | Relative NAGS level vs Untreated (±Standard Deviation) [1, 11]: 1.43 ± 0.38; Relative NAGS level vs Untreated (±Standard Deviation) [1, 12]: 1.49 ± 0.10; Relative NAGS level vs Untreated (±Standard Deviation) [1, 13]: 1.38 ± 0.07; CPS1 mRNA FC ([2]; 0.3 uM): 1.53; CPS1 mRNA FC ([2]; 3 uM): 1.05; Relative ASS1 level vs Untreated (±Standard Deviation) [3, 14]: 1.40 ± 0.43; Relative ASS1 level vs Untreated (±Standard Deviation) [3, 15]: 2.48 ± 0.79; OTC mRNA FC ([4]; 0.3 uM): 1.56; OTC mRNA FC ([4]; 3 uM): 0.56; Relative ARGI level vs Untreated (±Standard Deviation) ([5]; 10 μM, triplicate (Table 17, FIG. 9)): 1.70 ± 0.16; Relative SLC25A15 level vs Untreated (±Standard Deviation) [6, 16]: 1.78 ± 0.04; Relative SLC25A15 level vs Untreated (±Standard Deviation) [6, 17]: 2.56 ± 1.37; Relative SLC25A15 level vs Untreated (±Standard Deviation) [6, 18]: 2.94 ± 0.98; Relative CPS1 level vs Untreated (±Standard Deviation) ([7]; 3 μM): 2.35 ± 0.15; Relative CPS1 level vs Untreated (±Standard Deviation) ([7]; 10 μM): 1.53 ± 0.33
2 | O=C1CCc2c(Oc3ccc4c(c3)[C@@H]3[C@H](O4)[C@H]3c3nc4ccc(C(F)(F)F)cc4[nH]3)ccnc2N1 [Lifirafenib (BGB-283), Lifirafenib] |  |  |  |  |  | Relative NAGS level vs Untreated (±Standard Deviation) [1]: 1.35 ± 0.35 and 1.44 ± 0.15; Relative SLC25A13 level vs Untreated (±Standard Deviation) ([8]; 10 μM): 1.92 ± 0.11; increase in SLC25A13 gene expression (Table 23, FIG. 15) ([8]; Example 11, relative mRNA vs DMSO): greatest increase; Relative ASS1 level vs Untreated (±Standard Deviation) [3]: 1.55 ± 0.28; Relative SLC25A15 level vs Untreated (±Standard Deviation) [6]: 1.92 ± 0.11 and 2.00 ± 0.13
3 | COc1cccc2cc(-c3nc([C@H]4CC[C@H](C(=O)O)CC4)n4ncnc(N)c34)[nH]c12 [OSI-027] |  |  |  |  |  | Relative NAGS level vs Untreated (±Standard Deviation) [1, 11]: 1.46 ± 0.07; Relative NAGS level vs Untreated (±Standard Deviation) [1, 12]: 1.37 ± 0.27; Relative NAGS level vs Untreated (±Standard Deviation) [1, 13]: 2.51 ± 0.16; Relative NAGS level vs Untreated (±Standard Deviation) ([1]; 10 μM, primary human hepatocytes, triplicate (Table 21, FIG. 13)): 2.14 ± 0.12; Relative SLC25A13 level vs Untreated (±Standard Deviation) ([8]; 1 μM): 1.53 ± 0.01; Relative SLC25A13 level vs Untreated (±Standard Deviation) ([8]; 3 μM): 1.87 ± 0.46; Relative SLC25A13 level vs Untreated (±Standard Deviation) ([8]; 10 μM): 1.52 ± 0.04; Relative ASS1 level vs Untreated (±Standard Deviation) ([3]; 1 μM, primary human hepatocytes, triplicate (Table 15, FIG. 7)): 1.55 ± 0.16; Relative ASS1 level vs Untreated (±Standard Deviation) [3, 14]: 1.45 ± 0.10; Relative ASS1 level vs Untreated (±Standard Deviation) [3, 15]: 2.05 ± 0.00; Relative SLC25A15 level vs Untreated (±Standard Deviation) [6, 16]: 1.53 ± 0.01; Relative SLC25A15 level vs Untreated (±Standard Deviation) [6, 17]: 1.87 ± 0.46; Relative SLC25A15 level vs Untreated (±Standard Deviation) [6, 18]: 1.52 ± 0.04
4 | Activin | 2.01 | 2.23 | four | NAGS, CPS1, OTC, ARG1 | 0.94 | Fold change (Log 2) vs untreated, NAGS expression [1]: 0.69 Log 2
5 | EGF: Epidermal Growth Factor, a polypeptide growth factor | 1.46 | 1.93 | three | CPS1, OTC, ARG1 | 0.64 | 
6 | FGF: Fibroblast Growth Factor-acidic (FGF-acidic), also known as FGF-1 | 1.24 | 1.72 | three | CPS1, OTC, ARG1 | 0.56 | 
7 | HGF/SF: Hepatocyte Growth Factor, also known as scatter factor (SF) | 1.51 | 2.02 | four | NAGS, CPS1, OTC, ARG1 | 0.56 | Fold change (Log 2) vs untreated, NAGS expression [1]: 0.56 Log 2
8 | PDGF | 1.85 | 2.12 | four | CPS1, OTC, ARG1, SLC25A15 | 0.77 | Fold change (Log 2) vs untreated, SLC25A15 expression ([6]; primary human hepatocytes, RNA-seq (Table 8)): 0.71 Log 2
9 | TNF-α |  | 2.31 | four | CPS1, ASS1, OTC, ARG1 | 0.87 | Fold change (Log 2) vs untreated, ASS1 expression ([3]; primary human hepatocytes, RNA-seq (Table 4)): 0.58 Log 2
10 | B1 | 2.06 | 2.35 | three | CPS1, OTC, ARG1 | 0.81 | 
11 | B2 | 2.05 | 2.44 | three | CPS1, OTC, ARG1 | 0.68 | 
12 | B3 | 2.07 | 2.6 | four | CPS1, OTC, ARG1, SLC25A15 | 0.92 | 
